Measured values from US20250136570A1 (Tango Therapeutics, Inc., priority 2021, published 2025).

Columns and labels:
HDAC3/NCor2 = HDAC3/NCor2 (Homo sapiens (Human), UniProt O15379); assay: HDAC3 inhibition, Fluor de Lys fluorescent enzyme assay; format: biochemical; conditions: 3 hours pre-incubation at room temp; 1.2 nM enzyme; 16 μM Fluor de Lys substrate; duplicate
Excerpt: (§1) Recombinant HDAC1 (cat #: 50051) and HDAC3/NCor2 (cat #: 50003) enzymes were purchased from BPS Bioscience (San Diego, CA, US). Assay reagents for the detection of HDAC enzyme activity (Fluor de Lys®—Green substrate and Developer kits) were purchased from Enzo Life Science (Farmingdale, NY, US). Plates used to conduct the enzyme reaction were Proxiplate-384 (cat #: 6008280) Plus from PerkinElmer (Waltham, MA, US). TSA, an HDAC inhibitor, was purchased from Enzo Life Science (cat #BML-GR309-9090) The remainder of the reagents used to prepare the assay buffer were purchased from Sigma-Aldrich (St Louis, MO, US). Unless stated otherwise, HDAC1 and 3 assays were conducted in 50 mM Tris buffer, pH 8, 137 mM NaCl, 2.7 mM KCl, 0.01% BSA.
(§2) IC50 determination for HDAC1 and HDAC3—Prior to adding reagents, 50 nL/well of compound were added to Proxiplates using an Echo dispenser instrument (Beckman Coulter, CA, US). After addition of compound, 2.5 μL/well of 2× enzyme solution was added and the enzyme was pre-incubated with compound for 3 hours at room temp. (˜22° C.). After the pre-incubation period, the enzyme reaction was initiated by adding 2.5 μL/well of 2× Fluor de Lys® substrate solution. The assay reaction was stopped after one hour by adding 5 μl/well of a 0.66× Developer solution containing TSA (3.2 μM). The final product of the enzyme reaction was read using a Spectramax plate reader instrument (Molecular Devices, CA, US) using a fluorescent readout (Ex 360 nm/Em 460 nm). The final enzyme concentrations in the assay buffer for HDAC1 and 3 were 6 and 1.2 nM, respectively. The final Fluor de Lys® substrate concentration in the assay buffer was 16 μM for all HDAC enzymes. IC50 values were determined using the following equation: […]
(§3) Where Efree and Eo are the free and total amount of HDAC enzyme in the reaction mixture, n is the hill coefficient, I is the free inhibitor concentration, and IC50 is the measure of the potency equivalent to the inhibitor concentration that leads to a 50% occupancy of the total enzyme. Each data was generated in duplicate.

Recombinant HDAC1 = Recombinant HDAC1 (Homo sapiens (Human), UniProt Q13547); assay: HDAC1 inhibition, Fluor de Lys fluorescent enzyme assay; format: biochemical; conditions: 3 hours pre-incubation at room temp; 6 nM enzyme; 16 μM Fluor de Lys substrate; duplicate
Excerpt: as §1, §2, §3

Sequence of HDAC3/NCor2 (O15379 whole entry): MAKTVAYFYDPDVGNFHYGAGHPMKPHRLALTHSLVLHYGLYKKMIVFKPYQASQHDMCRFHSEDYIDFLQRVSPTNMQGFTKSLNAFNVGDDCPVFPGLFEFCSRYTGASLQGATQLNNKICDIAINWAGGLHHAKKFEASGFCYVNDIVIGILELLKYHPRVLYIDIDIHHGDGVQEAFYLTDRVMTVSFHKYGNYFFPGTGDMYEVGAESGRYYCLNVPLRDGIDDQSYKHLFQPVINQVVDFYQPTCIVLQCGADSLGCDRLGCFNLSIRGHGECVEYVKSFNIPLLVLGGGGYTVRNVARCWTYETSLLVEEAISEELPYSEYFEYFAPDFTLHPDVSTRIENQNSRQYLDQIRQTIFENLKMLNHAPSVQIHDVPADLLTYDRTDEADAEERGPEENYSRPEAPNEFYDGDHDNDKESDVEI
Sequence of HDAC3/NCor2 (Q9Y618 395-489 partner): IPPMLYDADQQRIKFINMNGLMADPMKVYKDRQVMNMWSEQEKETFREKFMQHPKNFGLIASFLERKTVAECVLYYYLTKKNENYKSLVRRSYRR
Sequence of Recombinant HDAC1 (Q13547 whole entry): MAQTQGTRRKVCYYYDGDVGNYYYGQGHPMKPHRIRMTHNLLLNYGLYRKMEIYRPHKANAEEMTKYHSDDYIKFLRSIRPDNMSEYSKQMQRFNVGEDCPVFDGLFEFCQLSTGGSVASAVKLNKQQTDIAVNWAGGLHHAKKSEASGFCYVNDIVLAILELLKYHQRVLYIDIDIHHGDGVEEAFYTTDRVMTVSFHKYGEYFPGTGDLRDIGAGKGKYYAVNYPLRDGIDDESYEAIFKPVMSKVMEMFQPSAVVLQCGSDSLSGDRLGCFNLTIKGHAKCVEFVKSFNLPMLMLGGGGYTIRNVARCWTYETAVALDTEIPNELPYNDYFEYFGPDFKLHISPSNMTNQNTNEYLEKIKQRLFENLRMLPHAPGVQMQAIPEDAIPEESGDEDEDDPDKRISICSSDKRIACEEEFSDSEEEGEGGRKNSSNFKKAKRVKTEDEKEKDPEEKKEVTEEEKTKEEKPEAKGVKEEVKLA

IC50 (HDAC3/NCor2) [nM] | IC50 (Recombinant HDAC1) [nM] | SMILES
500 to 2000 | < 100 | N=S(=O)(c1ccc(C(=O)Nc2cc(-c3ccc(F)cc3)ccc2N)cc1)C1CC1 (racemic) [Compound 111, rac-N-[2-amino-5-(4-fluorophenyl)phenyl]-4-(cyclopropylsulfonimidoyl)benzamide]
500 to 2000 | < 100 | N=S(=O)(c1ccc(C(=O)Nc2cc(-c3ccc(F)s3)ccc2N)cc1)C1CC1 (racemic) [Compound 127, rac-N-[2-amino-5-(5-fluoro-2-thienyl)phenyl]-4-(cyclopropylsulfonimidoyl)benzamide]
> 2000 | < 100 | Nc1ccc(-c2ccc(F)cc2)cc1NC(=O)c1ccc([S@]2(=O)=N[C@@H](c3ccccc3)CC2)cc1 (racemic) [Compound 196, rac-N-(4-amino-4′-fluoro-[1,1′-biphenyl]-3-yl)-4-((1S,3R)-1-oxido-3-phenyl-4,5-dihydro-3H-1λ^6-isothiazol-1-yl)benzamide]
> 2000 | < 100 | Nc1ccc(-c2ccc(F)cc2)cc1NC(=O)c1ccc([S@@]2(=O)=N[C@@H](c3ccccc3)CC2)cc1 (racemic) [Compound 229, rac-N-(4-amino-4′-fluoro-[1,1′-biphenyl]-3-yl)-4-((1R,3R)-1-oxido-3-phenyl-4,5-dihydro-3H-1λ^6-isothiazol-1-yl)benzamide]
500 to 2000 | < 100 | C[S@@](=N)(=O)c1ccc(C(=O)Nc2cc(-c3cccs3)ccc2N)cc1 (single isomer, unassigned) [Compound 105]
500 to 2000 | < 100 | C[S@](=N)(=O)c1ccc(C(=O)Nc2cc(-c3cccs3)ccc2N)cc1 (single isomer, unassigned) [Compound 106]
500 to 2000 | < 100 | N=[S@](=O)(c1ccc(C(=O)Nc2cc(-c3cccs3)ccc2N)cc1)C1CC1 (single isomer, unassigned) [Compound 114]
500 to 2000 | < 100 | N=[S@@](=O)(c1ccc(C(=O)Nc2cc(-c3cccs3)ccc2N)cc1)C1CC1 (single isomer, unassigned) [Compound 115]
500 to 2000 | < 100 | N=[S@](=O)(c1ccc(C(=O)Nc2cc(-c3ccc(F)s3)ccc2N)cc1)C1CC1 (single isomer, unassigned) [Compound 131]
500 to 2000 | < 100 | N=[S@@](=O)(c1ccc(C(=O)Nc2cc(-c3ccc(F)s3)ccc2N)cc1)C1CC1 (single isomer, unassigned) [Compound 133]
500 to 2000 | < 100 | N=[S@](=O)(c1ccc(C(=O)Nc2cc(-c3ccc(F)cc3)ccc2N)cc1)C1CC1 (single isomer, unassigned) [Compound 145]
500 to 2000 | < 100 | N=[S@@](=O)(c1ccc(C(=O)Nc2cc(-c3ccc(F)cc3)ccc2N)cc1)C1CC1 (single isomer, unassigned) [Compound 146]
500 to 2000 | < 100 | N=[S@@](=O)(c1ccc(C(=O)Nc2cc(-c3ccc(F)cc3)ccc2N)cc1)c1cncnc1 (single isomer, unassigned) [Compound 181]
500 to 2000 | < 100 | N=[S@](=O)(c1ccc(C(=O)Nc2cc(-c3ccc(F)cc3)ccc2N)cc1)c1cncnc1 (single isomer, unassigned) [Compound 183]
500 to 2000 | < 100 | N=[S@@](=O)(c1ccc(C(=O)Nc2cc(-c3ccc(F)cc3)ccc2N)cc1)c1ccccn1 (single isomer, unassigned) [Compound 212]
500 to 2000 | < 100 | N=[S@](=O)(c1ccc(C(=O)Nc2cc(-c3ccc(F)cc3)ccc2N)cc1)c1ccccn1 (single isomer, unassigned) [Compound 220]
500 to 2000 | < 100 | Nc1ccc(-c2ccc(F)cc2)cc1NC(=O)c1ccc([S@]2(=O)=NCCC2)cc1 (stereo in doubt) [Compound 184, N-[2-amino-5-(4-fluorophenyl)phenyl]-4-[rel-(1S)-1-oxo-4,5-dihydro-3H-isothiazol-1-yl]benzamide]

IC50 (HDAC3/NCor2) [nM] | IC50 (Recombinant HDAC1) [nM] | SMILES
500 to 2000 | < 100 | Nc1ccc(-c2ccc(F)cc2)cc1NC(=O)c1ccc([S@@]2(=O)=NCCC2)cc1 (stereo in doubt) [Compound 185, N-[2-amino-5-(4-fluorophenyl)phenyl]-4-[rel-(1R)-1-oxo-4,5-dihydro-3H-isothiazol-1-yl]benzamide]
500 to 2000 | < 100 | N=S(=O)(c1ccccc1)c1ccc(C(=O)Nc2cc(-c3cccs3)ccc2N)cc1 (centres unmarked) [Compound 102, N-[2-amino-5-(2-thienyl)phenyl]-4-(phenylsulfonimidoyl)benzamide]
500 to 2000 | < 100 | N=S(=O)(c1ccc(C(=O)Nc2cc(-c3cccs3)ccc2N)cc1)C1CC1 (centres unmarked) [Compound 103, N-[2-amino-5-(2-thienyl)phenyl]-4-(cyclopropylsulfonimidoyl)benzamide]
500 to 2000 | < 100 | CS(=N)(=O)c1ccc(C(=O)Nc2cc(-c3ccc(F)cc3)ccc2N)cc1 (centres unmarked) [Compound 104, N-[2-amino-5-(4-fluorophenyl)phenyl]-4-(methylsulfonimidoyl)benzamide]
500 to 2000 | 100 to 500 | CS(=N)(=O)c1ccc(C(=O)Nc2cc(-c3cccnc3)ccc2N)cc1 (centres unmarked) [Compound 107, N-[2-amino-5-(3-pyridyl)phenyl]-4-(methylsulfonimidoyl)benzamide]
> 2000 | < 100 | CS(=N)(=O)c1ccc(C(=O)Nc2cc(-c3ccncc3)ccc2N)cc1 (centres unmarked) [Compound 108, N-[2-amino-5-(4-pyridyl)phenyl]-4-(methylsulfonimidoyl)benzamide]
500 to 2000 | < 100 | CS(=N)(=O)c1ccc(C(=O)Nc2cc(-c3ccc(F)s3)ccc2N)cc1 (centres unmarked) [Compound 109, N-[2-amino-5-(5-fluoro-2-thienyl)phenyl]-4-(methylsulfonimidoyl)benzamide]
500 to 2000 | < 100 | CS(=N)(=O)c1ccc(C(=O)Nc2cc(-c3cccs3)ccc2N)cn1 (centres unmarked) [Compound 110, N-[2-amino-5-(2-thienyl)phenyl]-6-(methylsulfonimidoyl)pyridine-3-carboxamide]
500 to 2000 | < 100 | CS(=N)(=O)c1ccc(C(=O)Nc2cc(-c3cccs3)ccc2N)nc1 (centres unmarked) [Compound 113, N-[2-amino-5-(2-thienyl)phenyl]-5-(methylsulfonimidoyl)pyridine-2-carboxamide]
500 to 2000 |  | Nc1ccc(-c2cccs2)cc1NC(=O)c1ccc(S2(=O)=NCCC2)cc1 (centres unmarked) [Compound 126, N-[2-amino-5-(2-thienyl)phenyl]-4-(1-oxo-4,5-dihydro-3H-isothiazol-1-yl)benzamide]
500 to 2000 |  | Nc1ccc(-c2ccc(F)cc2)cc1NC(=O)c1ccc(S2(=O)=NCCC2)cc1 (centres unmarked) [Compound 154, N-[2-amino-5-(4-fluorophenyl)phenyl]-4-(1-oxo-4,5-dihydro-3H-isothiazol-1-yl)benzamide]
500 to 2000 |  | Nc1ccc(-c2ccc(F)s2)cc1NC(=O)c1ccc(S2(=O)=NCCC2)cc1 (centres unmarked) [Compound 160, N-[2-amino-5-(5-fluoro-2-thienyl)phenyl]-4-(1-oxo-4,5-dihydro-3H-isothiazol-1-yl)benzamide]
500 to 2000 |  | Nc1ccc(-c2ccc(F)cc2)cc1NC(=O)c1ccc(S2(=O)=NCCC2)nc1 (centres unmarked) [Compound 178, N-[2-amino-5-(4-fluorophenyl)phenyl]-6-(1-oxo-4,5-dihydro-3H-isothiazol-1-yl)pyridine-3-carboxamide]
500 to 2000 |  | CS(=N)(=O)Cc1ccc(C(=O)Nc2cc(-c3ccc(F)cc3)ccc2N)cn1 (centres unmarked) [Compound 201]
500 to 2000 |  | Nc1ccc(-c2ccc(F)cc2)cc1NC(=O)c1cc2cc(S3(=O)=NCCC3)ccc2s1 (centres unmarked) [Compound 204]
500 to 2000 |  | N=S(=O)(c1ccc(C(=O)Nc2cc(-c3ccc(F)cc3)ccc2N)cc1)c1ccc(Cl)cn1 (centres unmarked) [Compound 213]
500 to 2000 |  | Nc1ccc(-c2ccc(F)cc2)cc1NC(=O)c1ccc(S2(=O)=NCCCC2)cc1 (centres unmarked) [Compound 243, N-[2-amino-5-(4-fluorophenyl)phenyl]-4-(1-oxo-1thia-2-azacyclohexen-1-yl)benzamide]

SMILES | IC50 (HDAC3/NCor2) [nM] | IC50 (Recombinant HDAC1) [nM]
CC(C)(C)OC(=O)N=S(=O)(c1ccc(C(=O)Nc2cc(-c3cccs3)ccc2NC(=O)OC(C)(C)C)cc1)C1CC1 (centres unmarked) [Compound 112, tert-butyl N-[[4-[[2-(tert-butoxycarbonylamino)-5-(2-thienyl)phenyl]carbamoyl]phenyl]-cyclopropyl-oxo-sulfanylidene]carbamate] | > 2000 | > 2000
